Measured values taken from ChEMBL document CHEMBL6083178, “Chemistry and pharmacological aspects of furanoid cannabinoids and related compounds: Is furanoid cannabinoids open a new dimension towards the non-psychoactive cannabinoids?” (Eur J Med Chem, 2024).
pKi: −log10 of the molar value.

Experiments:
[1] = biological target: T1, Cannabinoid receptor 2 (Homo sapiens, UniProt P34972); experiment: Binding affinity to CB2 receptor (unknown origin) assessed as inhibition constant measured after 90 mins
T1 sequence (P34972 whole entry): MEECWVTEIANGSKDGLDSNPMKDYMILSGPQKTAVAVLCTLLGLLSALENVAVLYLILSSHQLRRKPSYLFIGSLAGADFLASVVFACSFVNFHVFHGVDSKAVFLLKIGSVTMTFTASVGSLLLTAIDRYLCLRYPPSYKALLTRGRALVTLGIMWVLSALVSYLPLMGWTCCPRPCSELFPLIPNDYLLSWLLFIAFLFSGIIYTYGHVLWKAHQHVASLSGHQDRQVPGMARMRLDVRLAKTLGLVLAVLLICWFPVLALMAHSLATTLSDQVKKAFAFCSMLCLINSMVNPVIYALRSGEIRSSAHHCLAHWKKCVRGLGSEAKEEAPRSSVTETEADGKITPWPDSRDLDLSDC

[2] = biological target: T2, Cannabinoid receptor 1 (Homo sapiens, UniProt P21554); experiment: Displacement of [3H]CP55940 from CB1 receptor (unknown origin) assessed as inhibition constant measured after 90 mins
T2 sequence (P21554 whole entry): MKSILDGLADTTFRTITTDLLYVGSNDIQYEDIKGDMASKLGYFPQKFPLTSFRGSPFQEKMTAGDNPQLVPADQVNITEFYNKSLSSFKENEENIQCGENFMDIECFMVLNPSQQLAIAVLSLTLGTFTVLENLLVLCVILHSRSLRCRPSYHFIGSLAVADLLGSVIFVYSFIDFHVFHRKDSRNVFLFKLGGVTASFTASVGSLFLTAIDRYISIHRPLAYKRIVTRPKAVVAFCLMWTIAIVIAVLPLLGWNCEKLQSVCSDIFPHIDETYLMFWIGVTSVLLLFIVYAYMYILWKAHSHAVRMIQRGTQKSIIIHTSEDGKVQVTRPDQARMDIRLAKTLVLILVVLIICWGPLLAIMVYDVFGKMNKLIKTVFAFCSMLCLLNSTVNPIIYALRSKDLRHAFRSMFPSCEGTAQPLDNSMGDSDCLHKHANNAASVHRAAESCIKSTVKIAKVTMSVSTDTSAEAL

[3] = biological target: Cannabinoid receptor 1 (Mus musculus, UniProt P47746); experiment: Displacement of [3H]CP55940 from mouse brain CB1 receptor assessed as inhibition constant
Sequence of Cannabinoid receptor 1 (Mus musculus, UniProt P47746) (P47746 whole entry): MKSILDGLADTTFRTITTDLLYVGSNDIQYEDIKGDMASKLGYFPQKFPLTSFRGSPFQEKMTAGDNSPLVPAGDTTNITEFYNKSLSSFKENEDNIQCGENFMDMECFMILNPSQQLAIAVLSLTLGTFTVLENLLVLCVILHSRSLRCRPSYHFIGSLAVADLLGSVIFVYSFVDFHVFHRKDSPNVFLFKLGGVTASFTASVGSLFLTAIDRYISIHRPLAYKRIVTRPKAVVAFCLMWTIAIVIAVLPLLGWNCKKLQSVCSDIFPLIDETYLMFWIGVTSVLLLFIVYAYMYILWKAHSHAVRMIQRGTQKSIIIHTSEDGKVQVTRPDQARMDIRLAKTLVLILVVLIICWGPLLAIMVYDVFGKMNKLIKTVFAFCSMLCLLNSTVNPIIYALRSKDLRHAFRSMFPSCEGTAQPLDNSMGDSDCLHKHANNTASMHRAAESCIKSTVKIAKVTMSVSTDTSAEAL

[4] = biological target: T1, Cannabinoid receptor 2; experiment: Displacement of [3H]HU-243 from human CB2 receptor assessed as inhibition constant
[5] = biological target: T2, Cannabinoid receptor 1; experiment: Displacement of [3H]CP55940 from human CB1 receptor assessed as inhibition constant

**Q.** `CCCCCc1cc(O)c2c(c1)OC(C)(CCC=C(C)C)C=C2` (configuration not stated) [CANNABICHROMENE] was tested. Which pKi [1] did it give?
**A.** 6.70

**Q.** What about the pKi [2] of the same molecule?
**A.** 6.15

**Q.** `C=C(C)[C@@H]1CCC(C)=C[C@H]1c1c(O)cc(CCCCC)cc1O` [CANNABIDIOL] was tested. Which pKi [3] did it give?
**A.** 5.36

**Q.** Which results are given for `CCCCCc1cc(O)c(C/C=C(\C)CCC=C(C)C)c(O)c1` [CANNABIGEROL]?
**A.** pKi [4]: 7.00; pKi [5]: 6.40

**Q.** `CCCCCc1cc(O)c2c(c1)OC(C)(C)c1ccc(C)cc1-2` [CANNABINOL] was tested. Which pKi [5] did it give?
**A.** 7.00

**Q.** `CCCc1cc(O)c2c(c1)OC(C)(C)[C@@H]1CCC(C)=C[C@@H]21` [TETRAHYDROCANNABIVARIN] was tested. Which pKi [5] did it give?
**A.** 7.10
